Source: article PMC8421423, “Cellular model system to dissect the isoform-selectivity of Akt inhibitors” (Nature Communications, 2021)
Several values for one entry are separate records, joined by “and”; a condition that tells them apart may be missing. Equal values may be shown once. Read-outs that look alike come from different tables or passages of the source.

How the values were obtained:
[1] = biological target: T1, Akt2 (Homo sapiens, UniProt P31751); test: Cellular thermal shift assay (CETSA) in PANC1 cells; type: cell-based; parameters: purchased Thermo Fisher Scientific #PV3184
[2] = CellTiter-Glo cell viability assay; type: cell-based, murine; conditions: mouse, parental Ba/F3 cells, CTG, parental, single replicates
Procedure: (§1) On day 0, cells were plated into white 384-well cell culture plates (Greiner Bio-One) using a Multidrop reagent dispenser (Thermo Fisher Scientific) at cell numbers that ensure linear and optimal luminescent signal intensity (Ba/F3myr-Akt1: 600 cells/well, Ba/F3myr-Akt2: 800 cells/well, Ba/F3myr-Akt3: 800 cells/well). […] Cell viability was analyzed on day 4 using the CellTiter-Glo Assay (Promega) as per the manufacturer’s instructions. […] All experimental points were measured in duplicates for each plate and were replicated in at least three plates.

[3] = test system: parental Ba/F3 cells; test: CellTiter-Glo cell viability assay; type: cell-based, murine; conditions: for cell viability: CTG, parental
Procedure: as §1

[4] = test system: Ba/F3^myr-Akt2 cells; test: CellTiter-Glo cell viability assay; conditions: for cell viability: CTG
[5] = biological target: T2, Akt3 (Homo sapiens, UniProt Q9Y243); test: Cellular thermal shift assay (CETSA) in PANC1 cells; type: cell-based; parameters: purchased ProQinase #1578-0000-1
[6] = biological target: T1, Akt2; test: STK HTRF KinEASE activity-based assay (IC50)
Procedure: The biochemical half maximal inhibitory concentrations (IC50) were determined with the STK HTRF KinEASE assay (Cisbio) according to the manufactor’s instructions. Briefly: 5 µL Kinase solution and 2.5 µL inhibitor solution (8% DMSO in HTRF buffer) were incubated for 1 h before the reaction was started by addition of 2.5 µL starting solution containing ATP and substrate peptide. […] After reaction completion (Akt1: 60 min, Akt2: 20 min, Akt3: 15 min), 10 µL of stop solution were added. […] The quotient of both intensities were recorded at eight different inhibitor concentrations and data fit to a Hill 4-parameter equation with Quattro software suite (Quattro Research GmbH, Martinsried, Germany). Each reaction was performed in duplicates and at least three independent determinations of each IC50 were made.

[7] = test system: Ba/F3^myr-Akt1 cells; test: CellTiter-Glo cell viability assay; conditions: for cell viability: CTG
Procedure: as §1

[8] = biological target: T3, Akt1 (Homo sapiens, UniProt P31749); test: STK HTRF KinEASE activity-based assay (IC50)
[9] = biological target: T3, Akt1; test: Cellular thermal shift assay (CETSA) in PANC1 cells; type: cell-based; parameters: purchased ProQinase #1379-0000-2
[10] = test system: Ba/F3^myr-Akt3 cells; test: CellTiter-Glo cell viability assay; conditions: for cell viability: CTG
Procedure: as §1

[11] = biological target: T2, Akt3; test: STK HTRF KinEASE activity-based assay (IC50)
[12] = test system: pAkt2; test: Western blot analysis, PANC1 cells; type: cell-based, human; conditions: PANC1, 24-h treatment
Procedure: Cells were seeded into six-well tissue culture plates (Sarstedt) (BaF3 myr-Akt1/2/3: 10^6 cells/well, PANC1: 250.000 cells/well). […] Cell lysis was initiated by addition of 100 μL RIPA buffer (Cell Signaling Technology) per well supplemented with phosphatase and protease inhibitor cocktails (Sigma) followed by incubation on ice for 20 min. Cells were then harvested by scraping (PANC1) or centrifugation (BaF3). Whole cell lysates were cleared by centrifugation at 14,000×g/4 °C for 10 min and transferred into fresh, pre-cooled microcentrifuge tubes. Protein concentrations were determined using the Pierce BCA protein assay (Thermo) as per manufacturer’s instructions. Equal amounts of protein were separated by SDS-PAGE and transferred to Immobilon-FL PVDF membranes (Merck Millipore) using Pierce™ 1-step transfer buffer (Thermo) and the Pierce™ Power Blotter (Thermo). Membranes were washed for 5 min with ddH2O, blocked with Intercept®Blocking Buffer TBS (Li-Cor) for 1 h at room temperature, and then incubated with primary antibodies diluted in Intercept®Blocking Buffer TBS overnight at 4 °C with gentle agitation. On the next day, the membranes were washed three times with TBS-T (50 mM Tris, 150 mM NaCl, 0.05 % Tween 20, pH 7.4) for 5 min before being incubated with secondary antibodies diluted in Intercept®Blocking Buffer TBS for 1 h at room temperature with gentle agitation. Finally, the membranes were washed three times for 5 min with TBS-T and then scanned using an Odyssey®CLx imaging system (Li-Cor).

[13] = CETSA PANC1, 1 µM, temperature 39.9
[14] = CETSA PANC1, 1 µM, temperature 43.5
[15] = CETSA PANC1, 1 µM, temperature 48.4
[16] = CETSA PANC1, 1 µM, temperature 53.8
[17] = CETSA PANC1, 1 µM, temperature 58.1
[18] = CETSA PANC1, 1 µM, temperature 61.4
[19] = CETSA PANC1, 1 µM, temperature 65.6
[20] = CETSA PANC1, 1 µM, temperature 70.9
[21] = CETSA PANC1, 1 µM, temperature 76
[22] = CETSA PANC1, 1 µM, temperature 79.9
[23] = CETSA PANC1, 2.5 µM, temperature 39.9
[24] = CETSA PANC1, 2.5 µM, temperature 43.5
[25] = CETSA PANC1, 2.5 µM, temperature 48.4
[26] = CETSA PANC1, 2.5 µM, temperature 53.8
[27] = CETSA PANC1, 2.5 µM, temperature 58.1
[28] = CETSA PANC1, 2.5 µM, temperature 61.4
[29] = CETSA PANC1, 2.5 µM, temperature 65.6
[30] = CETSA PANC1, 2.5 µM, temperature 70.9
[31] = CETSA PANC1, 2.5 µM, temperature 76
[32] = CETSA PANC1, 2.5 µM, temperature 79.9
[33] = cell viability assay Ba/F3 myr-Akt cells, log units

T3 sequence (P31749 whole entry): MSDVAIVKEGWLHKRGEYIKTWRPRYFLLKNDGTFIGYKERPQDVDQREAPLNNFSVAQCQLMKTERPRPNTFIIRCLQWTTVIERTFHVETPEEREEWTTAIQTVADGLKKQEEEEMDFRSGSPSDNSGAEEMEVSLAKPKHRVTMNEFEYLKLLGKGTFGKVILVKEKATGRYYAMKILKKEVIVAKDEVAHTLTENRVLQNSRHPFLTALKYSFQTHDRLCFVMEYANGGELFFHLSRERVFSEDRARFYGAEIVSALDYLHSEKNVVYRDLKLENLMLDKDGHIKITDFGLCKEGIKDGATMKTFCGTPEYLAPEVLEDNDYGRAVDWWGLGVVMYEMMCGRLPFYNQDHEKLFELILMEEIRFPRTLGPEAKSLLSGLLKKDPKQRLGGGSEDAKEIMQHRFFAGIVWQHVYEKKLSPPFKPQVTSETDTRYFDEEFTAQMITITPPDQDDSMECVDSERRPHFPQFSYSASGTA
T1 sequence (P31751 whole entry): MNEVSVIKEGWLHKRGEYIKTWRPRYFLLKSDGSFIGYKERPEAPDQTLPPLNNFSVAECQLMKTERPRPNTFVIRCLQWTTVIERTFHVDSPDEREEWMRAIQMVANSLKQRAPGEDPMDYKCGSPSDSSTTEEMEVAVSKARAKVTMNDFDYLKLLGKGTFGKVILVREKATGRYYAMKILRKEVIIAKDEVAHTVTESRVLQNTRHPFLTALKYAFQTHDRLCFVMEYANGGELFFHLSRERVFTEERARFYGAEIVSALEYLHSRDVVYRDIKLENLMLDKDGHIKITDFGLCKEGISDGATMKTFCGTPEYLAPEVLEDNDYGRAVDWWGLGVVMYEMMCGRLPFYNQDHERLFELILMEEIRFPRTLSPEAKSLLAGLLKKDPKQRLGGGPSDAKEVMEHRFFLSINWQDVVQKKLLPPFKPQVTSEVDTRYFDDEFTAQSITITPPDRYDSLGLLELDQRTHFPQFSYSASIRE
T2 sequence (Q9Y243 whole entry): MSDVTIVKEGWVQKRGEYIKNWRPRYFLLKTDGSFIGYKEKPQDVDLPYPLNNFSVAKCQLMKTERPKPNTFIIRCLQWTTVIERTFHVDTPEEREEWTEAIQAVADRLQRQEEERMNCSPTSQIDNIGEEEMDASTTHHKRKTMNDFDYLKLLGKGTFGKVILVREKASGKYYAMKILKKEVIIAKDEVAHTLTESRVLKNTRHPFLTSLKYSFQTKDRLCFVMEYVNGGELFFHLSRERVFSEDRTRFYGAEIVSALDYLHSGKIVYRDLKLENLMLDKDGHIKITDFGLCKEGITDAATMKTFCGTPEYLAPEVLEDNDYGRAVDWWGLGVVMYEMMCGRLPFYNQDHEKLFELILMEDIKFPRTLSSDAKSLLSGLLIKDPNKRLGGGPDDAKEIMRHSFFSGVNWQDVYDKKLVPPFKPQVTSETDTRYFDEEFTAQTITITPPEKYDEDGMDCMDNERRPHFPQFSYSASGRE

tAkt2 % [1, 13]: 100.00%
tAkt2 % [1, 14]: 81.90%
tAkt2 % [1, 15]: 58.55%
tAkt2 % [1, 16]: 58.55%
tAkt2 % [1, 17]: 42.44%
tAkt2 % [1, 18]: 52.13%
tAkt2 % [1, 19]: 35.55%
tAkt2 % [1, 20]: 6.07%
tAkt2 % [1, 21]: 11.50%
tAkt2 % [1, 22]: 0.00%
tAkt2 % [1, 23]: 100.00%
tAkt2 % [1, 24]: 97.05%
tAkt2 % [1, 25]: 85.02%
tAkt2 % [1, 26]: 75.94%
tAkt2 % [1, 27]: 76.89%
tAkt2 % [1, 28]: 28.89%
tAkt2 % [1, 29]: 35.73%
tAkt2 % [1, 30]: 24.29%
tAkt2 % [1, 31]: 12.62%
tAkt2 % [1, 32]: 0.00%
EC50 ([4]; Mus musculus, read-out: CTG BaF3myr-Akt2, Mean, mean of replicates): 4.09 µM
EC50 ([4]; Mus musculus, read-out: CTG BaF3myr-Akt2, individual determinations, single replicates): 2.95 µM
EC50 ([4]; read-out: CTG BaF3myr-Akt2, individual determinations, single replicates): 4.7 µM and 4.62 µM
tAkt3 % [5, 13]: 100.00%
tAkt3 % [5, 14]: 71.95%
tAkt3 % [5, 15]: 46.73%
tAkt3 % [5, 16]: 49.56%
tAkt3 % [5, 17]: 48.14%
tAkt3 % [5, 18]: 35.11%
tAkt3 % [5, 19]: 25.19%
tAkt3 % [5, 20]: 2.44%
tAkt3 % [5, 21]: 2.83%
tAkt3 % [5, 22]: 0.00%
tAkt3 % [5, 23]: 100.00%
tAkt3 % [5, 24]: 103.86%
tAkt3 % [5, 25]: 83.57%
tAkt3 % [5, 26]: 72.46%
tAkt3 % [5, 27]: 73.91%
tAkt3 % [5, 28]: 50.24%
tAkt3 % [5, 29]: 22.85%
tAkt3 % [5, 30]: 8.02%
tAkt3 % [5, 31]: 2.05%
tAkt3 % [5, 32]: 0.00%
thermal stabilization of Akt3 (CETSA, in words) ([5]; PANC1, 1 µM): slight stabilization of Akt3
IC50 ([6]; HTRF IC50 Akt2, Mean, mean of replicates): 175 nM
IC50 ([6]; HTRF IC50 Akt2, individual determinations, single replicates): 177 nM and 317 nM and 174 nM
IC50 ([6]; IC50 Akt2, HTRF, ATP at KM, 1 h preincubation): 175 ± 2 nM
EC50 ([7]; Mus musculus, read-out: CTG BaF3myr-Akt1, Mean, mean of replicates): 9.48 µM
EC50 ([7]; Mus musculus, read-out: CTG BaF3myr-Akt1, individual determinations, single replicates): 10 µM
EC50 ([7]; read-out: CTG BaF3myr-Akt1, individual determinations, single replicates): 9.21 µM and 9.25 µM
IC50 ([8]; HTRF IC50 Akt1, Mean, mean of replicates): 1630 nM
IC50 ([8]; HTRF IC50 Akt1, individual determinations, single replicates): 1630 nM and 1810 nM and 1450 nM
IC50 ([8]; IC50 Akt1, HTRF, ATP at KM, 1 h preincubation): 1630 ± 148 nM
Log ratio IC50 [Akt] / IC50 [Akt], Akt1 / Akt2 ([8]; biochemical activity based assay, log units): 0.97
tAkt1 % [9, 13]: 100.00%
tAkt1 % [9, 14]: 45.86%
tAkt1 % [9, 15]: 43.98%
tAkt1 % [9, 16]: 34.21%
tAkt1 % [9, 17]: 23.05%
tAkt1 % [9, 18]: 19.70%
tAkt1 % [9, 19]: 13.05%
tAkt1 % [9, 20]: 3.12%
tAkt1 % [9, 21]: 1.54%
tAkt1 % [9, 22]: 0.00%
tAkt1 % [9, 23]: 100.00%
tAkt1 % [9, 24]: 55.35%
tAkt1 % [9, 25]: 36.29%
tAkt1 % [9, 26]: 40.13%
tAkt1 % [9, 27]: 29.31%
tAkt1 % [9, 28]: 31.38%
tAkt1 % [9, 29]: 3.90%
tAkt1 % [9, 30]: -1.89%
tAkt1 % [9, 31]: 0.94%
tAkt1 % [9, 32]: 0.00%
EC50 ([10]; Mus musculus, read-out: CTG BaF3myr-Akt3, Mean, mean of replicates): 5.05 µM
EC50 ([10]; Mus musculus, read-out: CTG BaF3myr-Akt3, individual determinations, single replicates): 5.1 µM
EC50 ([10]; read-out: CTG BaF3myr-Akt3, individual determinations, single replicates): 4.07 µM and 5.52 µM
IC50 ([11]; HTRF IC50 Akt3, individual determinations, single replicates): 144 nM and 176 nM and 240 nM and 188 nM
IC50 ([11]; IC50 Akt3, HTRF, ATP at KM, 1 h preincubation): 187 ± 40 nM
SMILES: C=CC(=O)Nc1ccc2[nH]c(=O)n(C3CCN(Cc4ccc(-c5ncc(Cc6ccc(N)nc6)cc5-c5ccccc5)cc4)CC3)c2c1 [compound 20]
thermal stabilization of Akt2 (CETSA, in words) ([1]; PANC1, 2.5 µM): significant stabilization of Akt2 and Akt3
viability at 3 days, 0.0001 µM ([2]; 0.1 nM, read-out: cell viability): 104%
viability at 3 days, 5 µM ([2]; 5000 nM): 83.7%
cell viability ([3]; 0.1 nM, single replicates, 0.0001 µM): 98.4 % of control and 93.0 % of control
cell viability ([3]; 5000 nM, single replicates, 5 µM): 87.1 % of control and 85.4 % of control
EC50 ([3]; Mus musculus, BaF3, parental cells, mean of replicates, read-out: CTG BaF3, Mean): 12.1 µM
EC50 ([3]; Mus musculus, BaF3, parental cells, single replicates, read-out: CTG BaF3, individual determinations): 9.75 µM
EC50 ([3]; parental cells, single replicates, read-out: CTG BaF3, individual determinations): 9.72 µM and 18.6 µM
cell viability ([4]; myr-Akt2, 0.1 nM, single replicates, 0.0001 µM): 92.3 % of control and 98.1 % of control
cell viability ([4]; myr-Akt2, 5000 nM, single replicates, 5 µM): 26.9 % of control and 44.2 % of control
viability at 0.0001 µM ([4]; Mus musculus, read-out: cell viability, CTG, myr-Akt2, 0.1 nM, single replicates): 105%
viability at 5 µM ([4]; Mus musculus, read-out: cell viability, CTG, myr-Akt2, 5000 nM, single replicates): 25.6%
thermal stabilization of Akt3 (CETSA, in words) ([5]; PANC1, 2.5 µM): significant stabilization of Akt2 and Akt3
cell viability ([7]; myr-Akt1, 0.1 nM, single replicates, 0.0001 µM): 108.0 % of control and 90.0 % of control
cell viability ([7]; myr-Akt1, 5000 nM, single replicates, 5 µM): 85.6 % of control and 91.8 % of control
viability at 0.0001 µM ([7]; Mus musculus, read-out: cell viability, CTG, myr-Akt1, 0.1 nM, single replicates): 102%
viability at 5 µM ([7]; Mus musculus, read-out: cell viability, CTG, myr-Akt1, 5000 nM, single replicates): 73.6%
Log ratio EC50 [Akt] / EC50 [Akt], Akt1 / Akt2 [7, 33]: 0.27
cell viability ([10]; myr-Akt3, 0.1 nM, single replicates, 0.0001 µM): 100.1 % of control and 113.6 % of control and 88.4 % of control
cell viability ([10]; myr-Akt3, 5000 nM, single replicates, 5 µM): 49.5 % of control and 56.5 % of control and 73.0 % of control
Log ratio EC50 [Akt] / EC50 [Akt], Akt3 / Akt2 [10, 33]: -0.09
pAkt2 level (immunoblot) [12]: moderate downregulation of pAkt2
